Test results taken from ChEMBL document CHEMBL1201862, “PubChem BioAssay data set” (2004).
“And” between values parts separate entries of the source, which are not always exact repeats. Equal entries are not always repeated.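 Compound exposure: 48 hours, 5 concentrations, 96-well plates. GI50: concentration for 50% inhibition of growth.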 The source made the active and inactive calls. Cut-off read from the data, not from the text of the source: active = GI50 up to about 1.1 µM and inactive = higher.

Key:
Test in all cases: NCI tumour cell line growth inhibition, 48 h
SN12C = system: SN12C
786-0 = system: 786-0
SF-268 = system: SF-268
HCC 2998 = system: HCC 2998
KM12 = system: KM12
EKVX = system: EKVX
K562 = system: K562
NCI-H226 = system: NCI-H226
UO-31 = system: UO-31
NCI-H460 = system: NCI-H460
SK-MEL-2 = system: SK-MEL-2
DLD-1 = system: DLD-1
HL-60 = system: HL-60
NCI-H23 = system: NCI-H23
MOLT-4 = system: MOLT-4
ACHN = system: ACHN
MDA-MB-231 = system: MDA-MB-231
MDA-MB-435 = system: MDA-MB-435
CAKI-1 = system: CAKI-1
SNB-75 = system: SNB-75

Structure (SMILES) | GI50 (SN12C) | GI50 (786-0) | GI50 (SF-268) | GI50 (HCC 2998) | GI50 (KM12) | GI50 (EKVX) | GI50 (K562) | GI50 (NCI-H226) | GI50 (UO-31) | GI50 (NCI-H460) | GI50 (SK-MEL-2) | GI50 (DLD-1) | GI50 (HL-60) | GI50 (NCI-H23) | GI50 (MOLT-4) | GI50 (ACHN) | GI50 (MDA-MB-231) | GI50 (MDA-MB-435) | GI50 (CAKI-1) | GI50 (SNB-75)
Nc1ncnc2c1ncn2C1CC(OCc2ccccc2[N+](=O)[O-])C(CO)O1 (configuration not stated) | 24.3 µM (inactive) | 43.4 µM (inactive) | 28.2 µM (inactive) | 28.8 µM (inactive) | 20 µM (inactive) | 33 µM (inactive) | 16.1 µM (inactive) | 11.8 µM (inactive) | 17 µM (inactive) | 20.1 µM (inactive) | 22.4 µM (inactive) | 23.7 µM (inactive) | 12.7 µM (inactive) | 23 µM (inactive) | 18.4 µM (inactive) | 13.3 µM (inactive) |  |  |  | 
CCOC(=O)C1=CN(Cc2ccccc2)C2ON=C(c3ccc(Cl)cc3)C2C1 (configuration not stated) | > 52 µM (inactive) | 54.7 µM (inactive) | > 42.1 µM (inactive) | > 100 µM (inactive) | 48.2 µM (inactive) | 20.6 µM (inactive) | 5 µM (inactive) | > 56.2 µM (inactive) | 26.9 µM (inactive) | 40.5 µM (inactive) | 15.2 µM (inactive) |  | 23.4 µM (inactive) | 35 µM (inactive) | 5.4 µM (inactive) | 31 µM (inactive) | 10.6 µM (inactive) | 29 µM (inactive) | > 52.6 µM (inactive) | 44.3 µM (inactive)
O=C(O)Cn1c(=O)[nH]c(=O)c2c1ncn2Cc1ccccc1 | > 100 µM (inactive) | > 100 µM (inactive) | > 100 µM (inactive) |  | > 100 µM (inactive) | > 100 µM (inactive) | > 100 µM (inactive) | > 100 µM (inactive) | > 100 µM (inactive) | > 100 µM (inactive) | > 100 µM (inactive) | > 100 µM (inactive) |  | > 100 µM (inactive) | > 100 µM (inactive) | > 100 µM (inactive) |  |  | > 100 µM (inactive) | > 100 µM (inactive)
CC(C)(C)C1=CC(=C2C=Cc3ccccc3O2)C=C(C(C)(C)C)C1=O | 3.21 µM (inactive) | 2.67 µM (inactive) | 5.55 µM (inactive) | 1.61 µM (inactive) | 2.47 µM (inactive) | 6.59 µM (inactive) | 3.94 µM (inactive) | 8.79 µM (inactive) | 4.68 µM (inactive) | 1.6 µM (inactive) | 2.13 µM (inactive) |  | 1.9 µM (inactive) | 4.56 µM (inactive) | 1.73 µM (inactive) | 5.51 µM (inactive) | 3.41 µM (inactive) | 1.75 µM (inactive) | 3.07 µM (inactive) | 5.55 µM (inactive)
CCCCCC(=O)Cc1cc(OC)cc2c1C(=O)Oc1cc(O)c(C(=O)O)c(CC(=O)CCCCC)c1O2 | > 10 µM (inactive) | 18.9 µM (inactive) | 35.2 µM (inactive) | 48.5 µM (inactive) | 46.5 µM (inactive) | 33.1 µM (inactive) | 30.6 µM (inactive) | > 100 µM (inactive) |  | 52.5 µM (inactive) |  | 35.6 µM (inactive) | 38.9 µM (inactive) | 19.2 µM (inactive) | 27.2 µM (inactive) | 35.7 µM (inactive) |  |  | > 100 µM (inactive) | 55.7 µM (inactive)
C[C@]12CC[C@H]3[C@@H](CC=C4C[C@@H](O)CC[C@@]43C)[C@@H]1C[C@H](N1CCOCC1)[C@@H]2O | > 100 µM (inactive) | 81.5 µM (inactive) | > 100 µM (inactive) | > 100 µM (inactive) | > 100 µM (inactive) | > 100 µM (inactive) | 68.4 µM (inactive) | > 100 µM (inactive) | > 100 µM (inactive) | > 100 µM (inactive) | > 100 µM (inactive) |  | 48.5 µM (inactive) | > 100 µM (inactive) | > 100 µM (inactive) | > 100 µM (inactive) | 54.3 µM (inactive) | > 100 µM (inactive) | > 100 µM (inactive) | 28.4 µM (inactive)
COC(=O)CC(C(C(C)=O)C(=O)OCc1ccccc1)N1C(=O)OC(c2ccccc2)C1c1ccccc1 (configuration not stated) | > 100 µM (inactive) | > 100 µM (inactive) | 40.7 µM (inactive) and 54.5 µM (inactive) | > 100 µM (inactive) and 89.3 µM (inactive) | 42 µM (inactive) and 35.6 µM (inactive) | 64.4 µM (inactive) | 68.5 µM (inactive) and 71.3 µM (inactive) |  |  | > 100 µM (inactive) | 61.5 µM (inactive) and 83.4 µM (inactive) | 64.7 µM (inactive) | 37.7 µM (inactive) and 32.2 µM (inactive) | 46.9 µM (inactive) and 55.3 µM (inactive) | 36.4 µM (inactive) and 42.3 µM (inactive) | > 100 µM (inactive) |  |  | 81.1 µM (inactive) and 83.4 µM (inactive) | 
c1ccc2c(CNCCCCCCCCNCc3cccc4ccccc34)cccc2c1 | 6.43 µM (inactive) | 1.73 µM (inactive) | 7.52 µM (inactive) |  | 1.82 µM (inactive) | 6.03 µM (inactive) | 0.679 µM (active) | 11.7 µM (inactive) | 1.87 µM (inactive) | 1.48 µM (inactive) | 1.65 µM (inactive) | 2.11 µM (inactive) | 1.86 µM (inactive) | 3.4 µM (inactive) | 2.02 µM (inactive) | 2.9 µM (inactive) |  |  | 1.98 µM (inactive) | 1.9 µM (inactive)
